Patent publication US10253039B2, “Inhibitors of bacterial DNA gyrase with efficacy against gram-negative bacteria” (priority 2014, dated 2019)
Values after ≈ are worked out from the molar mass of the structure shown.

Each compound was assayed on E. coli BW25113 (assay: MIC, microdilution in 96-well plates). Conditions: Escherichia coli, BW25113, B: E. coli BW25113; read-out: MIC.
Assay type: cell-based
Method in brief: (§1)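 MIC read by eye as the lowest concentration without turbidity, after 16-18 h shaking incubation at 37° C. Cells: 1:10000 inoculum from growing subculture in LB. Compound in 2-fold serial dilutions, triplicate wells, DMSO vehicle control; CLSI protocol.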

Structure (SMILES)	MIC
O=S(=O)(N[C@@H]1CCN(Cc2ccc(OC3CC3)cc2)C1)c1cccc2cccnc12 [Compound 96]	> 8 µg/mL
N#Cc1cccc(S(=O)(=O)N[C@@H]2CCN(Cc3ccc(N4CCCC4=O)cc3)C2)c1 [Compound 97]	> 8 µg/mL
O=S(=O)(N[C@@H]1CCN(Cc2ccc(-c3ccccc3)cc2)C1)c1cc(S(=O)(=O)c2ccccc2)cs1 [Compound 37]	> 8 µg/mL
O=S(=O)(N[C@@H]1CCN(Cc2ccc(OC3CC3)cc2)C1)c1cc(Cl)cc(C(F)(F)F)c1 [Compound 94]	> 8 µg/mL
O=C1CCCN1c1ccc(CN2CC[C@@H](NS(=O)(=O)c3cccc(C(F)(F)F)c3)C2)cc1 [Compound 99]	> 8 µg/mL

Each compound was assayed on Edwardsiella tarda (assay: MIC, microdilution in 96-well plates). Conditions: D: Edwardsiella tarda.
Assay type: cell-based
Method in brief: as §1

Structure (SMILES)	MIC
O=S(=O)(N[C@@H]1CCN(Cc2ccc(OC3CC3)cc2)C1)c1cccc2cccnc12 [Compound 96]	> 8 µg/mL
N#Cc1cccc(S(=O)(=O)N[C@@H]2CCN(Cc3ccc(N4CCCC4=O)cc3)C2)c1 [Compound 97]	> 8 µg/mL
O=S(=O)(N[C@@H]1CCN(Cc2ccc(-c3ccccc3)cc2)C1)c1cc(S(=O)(=O)c2ccccc2)cs1 [Compound 37]	> 8 µg/mL
O=S(=O)(N[C@@H]1CCN(Cc2ccc(OC3CC3)cc2)C1)c1cc(Cl)cc(C(F)(F)F)c1 [Compound 94]	> 8 µg/mL
O=C1CCCN1c1ccc(CN2CC[C@@H](NS(=O)(=O)c3cccc(C(F)(F)F)c3)C2)cc1 [Compound 99]	> 8 µg/mL

Each compound was assayed on E. coli JW5503 (deltolC) (assay: MIC, 20-strain panel). Conditions: Escherichia coli, C: E. coli JW5503 (deltolC).
Assay type: cell-based
Method in brief: as §1

Structure (SMILES)	MIC
O=S(=O)(N[C@@H]1CCN(Cc2ccc(OC3CC3)cc2)C1)c1cccc2cccnc12 [Compound 96]	1 µg/mL (≈ 2.36 µM)
N#Cc1cccc(S(=O)(=O)N[C@@H]2CCN(Cc3ccc(N4CCCC4=O)cc3)C2)c1 [Compound 97]	4 µg/mL (≈ 9.42 µM)
O=S(=O)(N[C@@H]1CCN(Cc2ccc(-c3ccccc3)cc2)C1)c1cc(S(=O)(=O)c2ccccc2)cs1 [Compound 37]	> 8 µg/mL
O=S(=O)(N[C@@H]1CCN(Cc2ccc(OC3CC3)cc2)C1)c1cc(Cl)cc(C(F)(F)F)c1 [Compound 94]	8 µg/mL (≈ 16.8 µM)
O=C1CCCN1c1ccc(CN2CC[C@@H](NS(=O)(=O)c3cccc(C(F)(F)F)c3)C2)cc1 [Compound 99]	2 µg/mL (≈ 4.28 µM)

Each compound was assayed on E. coli MG1655 (assay: MIC, 20-strain panel). Conditions: Escherichia coli, MG1655, A: E. coli MG1655; read-out: MIC.
Assay type: cell-based
Method in brief: as §1

Structure (SMILES)	MIC
O=S(=O)(N[C@@H]1CCN(Cc2ccc(OC3CC3)cc2)C1)c1cccc2cccnc12 [Compound 96]	> 8 µg/mL
N#Cc1cccc(S(=O)(=O)N[C@@H]2CCN(Cc3ccc(N4CCCC4=O)cc3)C2)c1 [Compound 97]	> 8 µg/mL
O=S(=O)(N[C@@H]1CCN(Cc2ccc(-c3ccccc3)cc2)C1)c1cc(S(=O)(=O)c2ccccc2)cs1 [Compound 37]	> 8 µg/mL
O=S(=O)(N[C@@H]1CCN(Cc2ccc(OC3CC3)cc2)C1)c1cc(Cl)cc(C(F)(F)F)c1 [Compound 94]	> 8 µg/mL
O=C1CCCN1c1ccc(CN2CC[C@@H](NS(=O)(=O)c3cccc(C(F)(F)F)c3)C2)cc1 [Compound 99]	> 8 µg/mL

These compounds were tested on Klebsiella pneumoniae subsp. pneumoniae (assay: MIC, 20-strain panel). Conditions: E: Klebsiella pneumoniae subsp. pneumoniae.
Assay type: cell-based
Method in brief: as §1

Structure (SMILES)	MIC
O=S(=O)(N[C@@H]1CCN(Cc2ccc(OC3CC3)cc2)C1)c1cccc2cccnc12 [Compound 96]	> 8 µg/mL
N#Cc1cccc(S(=O)(=O)N[C@@H]2CCN(Cc3ccc(N4CCCC4=O)cc3)C2)c1 [Compound 97]	> 8 µg/mL
O=S(=O)(N[C@@H]1CCN(Cc2ccc(-c3ccccc3)cc2)C1)c1cc(S(=O)(=O)c2ccccc2)cs1 [Compound 37]	> 8 µg/mL
O=S(=O)(N[C@@H]1CCN(Cc2ccc(OC3CC3)cc2)C1)c1cc(Cl)cc(C(F)(F)F)c1 [Compound 94]	> 8 µg/mL
O=C1CCCN1c1ccc(CN2CC[C@@H](NS(=O)(=O)c3cccc(C(F)(F)F)c3)C2)cc1 [Compound 99]	> 8 µg/mL

What follows are compounds tested on Salmonella enterica subsp. enterica typhimurium (assay: MIC, 20-strain panel). Conditions: F: Salmonella enterica subsp. enterica Typhimurium.
Assay type: cell-based
Method in brief: as §1

Structure (SMILES)	MIC
O=S(=O)(N[C@@H]1CCN(Cc2ccc(OC3CC3)cc2)C1)c1cccc2cccnc12 [Compound 96]	~8 µg/mL (≈ 18.9 µM)
N#Cc1cccc(S(=O)(=O)N[C@@H]2CCN(Cc3ccc(N4CCCC4=O)cc3)C2)c1 [Compound 97]	> 8 µg/mL
O=S(=O)(N[C@@H]1CCN(Cc2ccc(-c3ccccc3)cc2)C1)c1cc(S(=O)(=O)c2ccccc2)cs1 [Compound 37]	> 8 µg/mL
O=S(=O)(N[C@@H]1CCN(Cc2ccc(OC3CC3)cc2)C1)c1cc(Cl)cc(C(F)(F)F)c1 [Compound 94]	> 8 µg/mL
O=C1CCCN1c1ccc(CN2CC[C@@H](NS(=O)(=O)c3cccc(C(F)(F)F)c3)C2)cc1 [Compound 99]	> 8 µg/mL

What follows are compounds tested on Shigella flexneri (assay: MIC, 20-strain panel). Conditions: G: Shigella flexneri.
Assay type: cell-based
Method in brief: as §1

Structure (SMILES)	MIC
O=S(=O)(N[C@@H]1CCN(Cc2ccc(OC3CC3)cc2)C1)c1cccc2cccnc12 [Compound 96]	> 8 µg/mL
N#Cc1cccc(S(=O)(=O)N[C@@H]2CCN(Cc3ccc(N4CCCC4=O)cc3)C2)c1 [Compound 97]	> 8 µg/mL
O=S(=O)(N[C@@H]1CCN(Cc2ccc(-c3ccccc3)cc2)C1)c1cc(S(=O)(=O)c2ccccc2)cs1 [Compound 37]	> 8 µg/mL
O=S(=O)(N[C@@H]1CCN(Cc2ccc(OC3CC3)cc2)C1)c1cc(Cl)cc(C(F)(F)F)c1 [Compound 94]	> 8 µg/mL
O=C1CCCN1c1ccc(CN2CC[C@@H](NS(=O)(=O)c3cccc(C(F)(F)F)c3)C2)cc1 [Compound 99]	> 8 µg/mL

What follows are compounds tested on Staphylococcus aureus subsp. aureus (assay: MIC, 20-strain panel). Conditions: H: Staphylococcus aureus subsp. aureus, read-out: MIC.
Assay type: cell-based
Method in brief: as §1

Structure (SMILES)	MIC
O=S(=O)(N[C@@H]1CCN(Cc2ccc(OC3CC3)cc2)C1)c1cccc2cccnc12 [Compound 96]	> 8 µg/mL
N#Cc1cccc(S(=O)(=O)N[C@@H]2CCN(Cc3ccc(N4CCCC4=O)cc3)C2)c1 [Compound 97]	> 8 µg/mL
O=S(=O)(N[C@@H]1CCN(Cc2ccc(-c3ccccc3)cc2)C1)c1cc(S(=O)(=O)c2ccccc2)cs1 [Compound 37]	> 8 µg/mL
O=S(=O)(N[C@@H]1CCN(Cc2ccc(OC3CC3)cc2)C1)c1cc(Cl)cc(C(F)(F)F)c1 [Compound 94]	> 8 µg/mL
O=C1CCCN1c1ccc(CN2CC[C@@H](NS(=O)(=O)c3cccc(C(F)(F)F)c3)C2)cc1 [Compound 99]	> 8 µg/mL

Each compound was assayed on Staphylococcus epidermidis (assay: MIC, 20-strain panel). Conditions: not given.
Assay type: cell-based
Method in brief: as §1

Structure (SMILES)	MIC
O=S(=O)(N[C@@H]1CCN(Cc2ccc(OC3CC3)cc2)C1)c1cccc2cccnc12 [Compound 96]	> 8 µg/mL
N#Cc1cccc(S(=O)(=O)N[C@@H]2CCN(Cc3ccc(N4CCCC4=O)cc3)C2)c1 [Compound 97]	> 8 µg/mL
O=S(=O)(N[C@@H]1CCN(Cc2ccc(-c3ccccc3)cc2)C1)c1cc(S(=O)(=O)c2ccccc2)cs1 [Compound 37]	> 8 µg/mL
O=S(=O)(N[C@@H]1CCN(Cc2ccc(OC3CC3)cc2)C1)c1cc(Cl)cc(C(F)(F)F)c1 [Compound 94]	> 8 µg/mL
O=C1CCCN1c1ccc(CN2CC[C@@H](NS(=O)(=O)c3cccc(C(F)(F)F)c3)C2)cc1 [Compound 99]	> 8 µg/mL

What follows are compounds tested on Staphylococcus saprophyticus subsp. saprophyticus (assay: MIC, 20-strain panel). Conditions: not given.
Assay type: cell-based
Method in brief: as §1

Structure (SMILES)	MIC
O=S(=O)(N[C@@H]1CCN(Cc2ccc(OC3CC3)cc2)C1)c1cccc2cccnc12 [Compound 96]	> 8 µg/mL
N#Cc1cccc(S(=O)(=O)N[C@@H]2CCN(Cc3ccc(N4CCCC4=O)cc3)C2)c1 [Compound 97]	> 8 µg/mL
O=S(=O)(N[C@@H]1CCN(Cc2ccc(-c3ccccc3)cc2)C1)c1cc(S(=O)(=O)c2ccccc2)cs1 [Compound 37]	> 8 µg/mL
O=S(=O)(N[C@@H]1CCN(Cc2ccc(OC3CC3)cc2)C1)c1cc(Cl)cc(C(F)(F)F)c1 [Compound 94]	> 8 µg/mL
O=C1CCCN1c1ccc(CN2CC[C@@H](NS(=O)(=O)c3cccc(C(F)(F)F)c3)C2)cc1 [Compound 99]	> 8 µg/mL

The compounds below were run on Streptococcus agalactiae (assay: MIC, 20-strain panel). Conditions: not given.
Assay type: cell-based
Method in brief: as §1

Structure (SMILES)	MIC
O=S(=O)(N[C@@H]1CCN(Cc2ccc(OC3CC3)cc2)C1)c1cccc2cccnc12 [Compound 96]	> 8 µg/mL
N#Cc1cccc(S(=O)(=O)N[C@@H]2CCN(Cc3ccc(N4CCCC4=O)cc3)C2)c1 [Compound 97]	> 8 µg/mL
O=S(=O)(N[C@@H]1CCN(Cc2ccc(-c3ccccc3)cc2)C1)c1cc(S(=O)(=O)c2ccccc2)cs1 [Compound 37]	> 8 µg/mL
O=S(=O)(N[C@@H]1CCN(Cc2ccc(OC3CC3)cc2)C1)c1cc(Cl)cc(C(F)(F)F)c1 [Compound 94]	> 8 µg/mL
O=C1CCCN1c1ccc(CN2CC[C@@H](NS(=O)(=O)c3cccc(C(F)(F)F)c3)C2)cc1 [Compound 99]	> 8 µg/mL

What follows are compounds tested on Streptococcus pyogenes (assay: MIC, 20-strain panel). Conditions: not given.
Assay type: cell-based
Method in brief: as §1

Structure (SMILES)	MIC
O=S(=O)(N[C@@H]1CCN(Cc2ccc(OC3CC3)cc2)C1)c1cccc2cccnc12 [Compound 96]	> 8 µg/mL
N#Cc1cccc(S(=O)(=O)N[C@@H]2CCN(Cc3ccc(N4CCCC4=O)cc3)C2)c1 [Compound 97]	> 8 µg/mL
O=S(=O)(N[C@@H]1CCN(Cc2ccc(-c3ccccc3)cc2)C1)c1cc(S(=O)(=O)c2ccccc2)cs1 [Compound 37]	> 8 µg/mL
O=S(=O)(N[C@@H]1CCN(Cc2ccc(OC3CC3)cc2)C1)c1cc(Cl)cc(C(F)(F)F)c1 [Compound 94]	> 8 µg/mL
O=C1CCCN1c1ccc(CN2CC[C@@H](NS(=O)(=O)c3cccc(C(F)(F)F)c3)C2)cc1 [Compound 99]	> 8 µg/mL
